The values below come from US20160296511A1, “LAQUINIMOD FOR REDUCING THALAMIC DAMAGE IN MULTIPLE SCLEROSIS” (Teva Pharmaceutical Industries, Ltd., priority 2012, published 2016).

Test [1] deals with subjects with RRMS. The experiment in a line: ALLEGRO phase III clinical trial of daily oral laquinimod 0.6 mg in RRMS. It is filed as in vivo, human. To be noted: laquinimod 0.6 mg daily oral, 24 months. The method, then:
A multinational (24 countries), multicenter (approximately 139 sites), randomized, double-blinded, parallel-group, placebo-controlled clinical trial (“ALLEGRO” or MS-LAQ-301) was conducted to evaluate the efficacy, safety and tolerability of daily oral administration of laquinimod 0.6 mg in subjects with RRMS for a 24 months duration. One thousand one hundred and six (1106) patients were equally randomized to either laquinimod 0.6 mg or placebo and treated in a double-blind manner and baseline characteristics were balanced between groups. The primary endpoint of the study was the number of confirmed relapses during the double-blind treatment period, which corresponds to the annualized relapse rate (ARR—number of relapses divided by total exposure of all patients). Secondary endpoints included disability as measured by Expanded Disability Status Scale (EDSS) changes confirmed at 3 months, and cumulative number of gadolinium enhancing (GdE) and new/enlarging T2 MRI lesions. Double blind treatment phase: 24 months of once-daily oral administration of daily dose of 0.6 mg laquinimod or matching placebo. Eligible subjects were equally randomized 1:1 into one of the following treatment arms: • 1. Laquinimod capsules 0.6 mg: One 0.6 mg laquinimod capsule was administered orally once daily. The 0.6 mg laquinimod capsules contain 0.6 mg of Laquinimod Acid per capsule with meglumine, and were manufactured according to the method disclosed in PCT International Application Publication No. WO/2007/146248, published Dec. 21, 2007 (see, page 10, line 5 to page 11, line 3). • 2. Matching placebo for laquinimod arm: one capsule is administered once daily. The primary endpoint was the number of confirmed relapses during the double-blind study period. […] An event was counted as a relapse if the subject's symptoms were accompanied by observed objective neurological changes consistent with at least one of the following: an increase of at least 0.5 in the EDSS score; an increase of one grade in two or more of the seven functional systems; or an increase of two grades in one functional system. […] Secondary endpoints were disability progression as measured by the EDSS and the MSFC. […] Additional predefined disability endpoints include the proportion of patients without confirmed disability progression at 24 months; confirmed disability progression (defined as change in EDSS scores ≧1.0 points for baseline EDSS 0 to 5.0 or ≧5.5) sustained for six months; the accumulation of physical disability as measured by mean EDSS and the mean change in EDSS from baseline to last observed value (LOV). […]

For test [2], the system named is subjects with RRMS. Put plainly: ALLEGRO sub-study: 1H-MRS, NAA/Cr ratio in WM. The format is in vivo, human. To be noted: at 24 months; difference vs placebo not statistically significant (p=0.179), N=27. The method, then: • 1. Frequent MRI (selected countries and sites only): The cumulative number of T1-Gd enhancing lesions taken from scans obtained at months 0, 3, 6, 12, and 24, and in case the study is be extended, 30. Additional MRIs for the ancillary study are performed at months 3 and 6. • 2. Magnetization Transfer (MT) (selected countries and sites only): the change from baseline to month 12 and 24/30 months in magnetization transfer MRI. MT was assessed at months 0 (baseline), 12 and 24 (termination/early discontinuation). In case of the 6 months extended study, the last MT was performed at month 30 (termination/early discontinuation of the extended study) instead of month 24. • 3. Proton MR Spectroscopy (^1H-MRS) (selected countries and sites only): Change from baseline to 24/30 in ^1H-MRS metabolites. ^1H-MRS was assessed at months 0 (baseline), and 24 (termination/early discontinuation). In case of the 6 months extended study, the last ^1H-MRS was performed at month 30 (termination/early discontinuation of the extended study) instead of month 24. • 4. Pharmacogenetic (PGx) assessment: Blood samples for PGx parameters were collected from all subjects at screening. • 5. […] Changes in NAA/Cr from baseline to month 24 was analyzed using ANCOVA.

Regarding `CCN(C(=O)c1c(O)c2c(Cl)cccc2n(C)c1=O)c1ccccc1` [Laquinimod], in the test with subjects with RRMS [1], the Annualized relapse rates entry was “effectively reduced annualized relapse rates”, the Brain atrophy result is recorded as “reduced brain atrophy”, the “Development of new lesions” value is on record as “reduced the development of new lesions” and the Progression of disability entry is reported as “slowed the progression of disability”. Further, the “WM NAA/Cr ratio” value in the test with subjects with RRMS [2] is recorded as “tended to increase”.
